# pEC50: −log10 of the molar value. Read-outs that look alike come from different tables or passages of the source.
# Experiments:
# human SIRT3 = biological target: T1, human SIRT3 (Homo sapiens, UniProt Q9NTG7); experiment: PncA/GDH-coupled deacylation assay, SIRT3 activation (ACS2-acK642 substrate); type: biochemical; details: 100 μM, 387% vs 269%
# T1 construct: pET151D/Topo (Sirt3-114-380 and Sirt5-34-302); His tag (N, cleaved yes); made in house; host or cells: Escherichia coli
# T1 sequence (Q9NTG7 114-380): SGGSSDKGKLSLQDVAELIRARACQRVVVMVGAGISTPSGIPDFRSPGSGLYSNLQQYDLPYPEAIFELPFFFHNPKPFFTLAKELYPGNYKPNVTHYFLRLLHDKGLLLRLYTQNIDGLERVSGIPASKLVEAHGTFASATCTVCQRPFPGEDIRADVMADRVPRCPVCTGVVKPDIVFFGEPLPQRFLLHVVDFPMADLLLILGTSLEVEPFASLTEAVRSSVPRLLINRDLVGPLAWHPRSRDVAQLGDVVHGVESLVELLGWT
# Protocol: To avoid artifacts and other non-specific effects, instead of the “Fluor-de-Lys” (FdL) substrate, we used a PncA/GDH-coupled deacylation assay by measuring the NADPH oxidation to NADP^+ that relies on isoform-specific non-modified physiological acetyl or succinyl substrates [p53-acK381 for SIRT1, α-tubulin-[…] for SIRT2, acetyl-CoA synthetase 2 (ACS2)-acK642 for SIRT3, and CPS1-succK537 for SIRT5].[59] The assays were carried out using the 1,4-DHP derivatives 2a–n and 3a–d against SIRT3, including the prototype compounds 2 and 3 as positive controls.
# N-terminally his-tagged human sirtuins were expressed in Escherichia coli using constructs in pET15b (Sirt1) or pET151D/Topo (Sirt3-114-380 and Sirt5-34-302).[4],[59],[61] Sirt2-43-356 was expressed from a modified pET19b containing a TEV protease cleavage site and an N-terminal SUMO-tag.[59],[79] Proteins were expressed and purified as described elsewhere.[59],[61],[79]−[81] In brief, proteins were expressed in E. coli, crude extracts were cleared by centrifugation, and the proteins were affinity purified using NiNTA beads.
# Sirtuin deacylation activities were analyzed by using a coupled enzymatic assay as described in.[59],[82] […]
# HaCaT cells = experiment: Cell viability / cell death in healthy HaCaT cells; type: cell-based, human; details: for toxicity against healthy HaCaT cells: 5, 10, and 25 μM, 24 and 48 h; for Cell death (%) T24 / Cell death (%) T48: HaCaT; for Cell death (%) T24: 24 h; for Cell death (%) T48: 48 h
# Protocol: Breast cancer cell line MDA-MB-231, anaplastic thyroid cancer cell line CAL-62 and human keratinocytes HaCaT were purchased from ATCC and were cultured in RPMI 1640 medium (R0883 Sigma Aldrich-MERCK) (MDA-MB-231 and CAL-62) or DMEM medium (11965092, Gibco) supplemented with 10% fetal bovine serum (Sigma-Aldrich-MERCK, F9665), 2 mM glutamine (G7513; Sigma-Aldrich-MERCK), 100 units/mL penicillin and 0.1 mg/mL streptomycin (P0781; Sigma-Aldrich-MERCK). Adherent cells were detached by Trypsin–EDTA solution (TA049; Sigma-Aldrich-MERCK). Cells were maintained at 37 °C in humidified incubator with 5% CO2. Cells were treated with […] (CoCl2) (Merck; C8661) dissolved in distilled, sterile water for 24 h to induce hypoxia (200 μM). […] SIRT3 inhibitor 3-TYP was dissolved in DMSO and added to a final concentration of 1 μM for 24 and/or 48 h.
# (§1) Cell viability was assessed by the trypan blue exclusion assay. At the end of treatments, cells were harvested and stained with 0,4% trypan blue (Merck; T8154). The cell suspension was applied to a hemocytometer and counted with phase contrast microscopy (NIKON EclipseTE2000U, Nikon Netherlands, Amsterdam, The Netherlands).
# MDA-MB-231 cells = experiment: Scratch assay, MDA-MB-231 cell migration; type: cell-based, human; details: 50 μM, 48 h
# Protocol: Next, a scratch assay on MDA-MB-231 cells after treatment with 3c and 3d at 50 μM for 48 h was performed to assess their effect on cell migration (Figure 14).
# Cell lines were maintained in culture medium (as above) until reaching 100% confluence, then shifted to a serum-depleted culture medium to inhibit cell proliferation, as described in Magistri et al.;[83] a scratch wound was created on the cell layer using a micropipette tip. Micrographs were taken at 0 and 48 h after the scratch. Cell-devoid areas at 0 and 48 h after the scratch were quantified through the Fiji ImageJ image processing package.
# CAL-62 cells = experiment: Cell viability / cell death, trypan blue exclusion, CAL-62; type: cell-based; details: for reduction of cell viability: CAL-62, 50 μM; for pEC50: CAL-62, 48 h, read-out: EC50 cell death induction
# Protocol: Afterward, the selected compounds 3a–d were assayed at 50 μM for 24 and 48 h in CAL-62 and MDA-MB-231 cells to assess their ability to impair the cell viability and colony formation in either normoxia or hypoxia-induced condition, the latter obtained by adding a 200 μM cobalt chloride solution, as described in previous reports[69] (Figure 8). Most cancer cells, mainly solid types, are known to have an altered metabolism due to hypoxia, a non-physiological level of oxygen tension, which contributes to therapy resistance by causing cellular quiescence.[70] Moreover, hypoxic cancer cells can induce several factors that lead to cell proliferation and colony formation.[71]
# Breast cancer cell line MDA-MB-231, anaplastic thyroid cancer cell line CAL-62 and human keratinocytes HaCaT were purchased from ATCC and were cultured in RPMI 1640 medium (R0883 Sigma Aldrich-MERCK) (MDA-MB-231 and CAL-62) or DMEM medium (11965092, Gibco) supplemented with 10% fetal bovine serum (Sigma-Aldrich-MERCK, F9665), 2 mM glutamine (G7513; Sigma-Aldrich-MERCK), 100 units/mL penicillin and 0.1 mg/mL streptomycin (P0781; Sigma-Aldrich-MERCK). Adherent cells were detached by Trypsin–EDTA solution (TA049; Sigma-Aldrich-MERCK). Cells were maintained at 37 °C in humidified incubator with 5% CO2. Cells were treated with […] (CoCl2) (Merck; C8661) dissolved in distilled, sterile water for 24 h to induce hypoxia (200 μM). Hypoxic and normoxic cells were also treated with 10/50 μM of the indicated compounds (dissolved in DMSO) for 48 h, maintaining the CoCl2 in the culture medium for hypoxic conditions. SIRT3 inhibitor 3-TYP was dissolved in DMSO and added to a final concentration of 1 μM for 24 and/or 48 h.
# as §1
SIRT3 activation potency relative to reference 3 (human SIRT3) [fold],SMILES,toxicity against healthy HaCaT cells (HaCaT cells),MDA-MB-231 cell migration (MDA-MB-231 cells),"Cell death (%) T48 (CAL-62 cells; CAL-62, 10 μM, 48 h)","reduction of cell viability (CAL-62 cells; 24 h, normoxia) [%]","reduction of cell viability (CAL-62 cells; 48 h, hypoxia (200 μM CoCl2)) [%]","reduction of cell viability (CAL-62 cells; 48 h, normoxia) [%]","pEC50 (CAL-62 cells; Homo sapiens, hypoxia)","pEC50 (CAL-62 cells; Homo sapiens, normoxia)","viability at 10 µM (CAL-62 cells; Homo sapiens, CAL-62, 10 μM, 24 h, read-out: Cell viability (%) T24) [%]",Cell death (%) T24 (HaCaT cells; 5 μM),Cell death (%) T48 (HaCaT cells; 5 μM),Cell death (%) T24 (HaCaT cells; 10 μM),Cell death (%) T48 (HaCaT cells; 10 μM),Cell death (%) T24 (HaCaT cells; 25 μM),Cell death (%) T48 (HaCaT cells; 25 μM),impairment of MDA-MB-231 migration rate (MDA-MB-231 cells)
1.4,"CCOC(=O)C1=CN(C(=O)c2ccc(OC)c(OC)c2)C=C(C(=O)OCC)C1c1ccccc1 [Compound 3c, Diethyl 1-(3,4-dimethoxybenzoyl)-4-phenyl-1,4-dihydropyridine-3,5-dicarboxylate]",negligible toxicity,nicely reduce,–,–,–,–,–,–,–,–,–,–,–,–,–,–
–,"CCOC(=O)C1=CN(C(=O)c2cc(OC)cc(OC)c2)C=C(C(=O)OCC)C1c1ccccc1 [Compound 3d, Diethyl 1-(3,5-dimethoxybenzoyl)-4-phenyl-1,4-dihydropyridine-3,5-dicarboxylate]",some degree of cell viability reduction and cell death only after 48 h treatment and at higher concentrations (10 and 25 μM),nicely reduce,"36,6%",55,80,90,~5.46,~4.78,79.6,"3,9%","16,1%","8,4%","33,9%","15,3%","47,3%",over 75%
–,"CCOC(=O)C1=CN(C(=O)c2cccc(OC)c2)C=C(C(=O)OCC)C1c1ccccc1 [Compound 3a, Diethyl 1-(3-methoxybenzoyl)-4-phenyl-1,4-dihydropyridine-3,5-dicarboxylate]",–,–,–,37,59,64,–,–,–,–,–,–,–,–,–,–
